PubChem BioAssay (NCI)
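Abbreviation: GI50, concentration required for 50% inhibition of growth. TGI is the concentration that stops growth completely.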

What was measured:
Assay in all cases: inhibition of tumour cell growth, NCI panel, 384-well format; in the data active = GI50 below about 0.43 µM; inactive = the rest
IGROV1 ovarian = test system: IGROV1 ovarian
UO-31 renal = test system: UO-31 renal
NCI-H23 lung = test system: NCI-H23 lung
CAKI-1 renal = test system: CAKI-1 renal
UACC-62 melanoma = test system: UACC-62 melanoma
NCI-H460 NSCLC = test system: NCI-H460 NSCLC
T-47D breast = test system: T-47D breast
OVCAR-8 ovarian = test system: OVCAR-8 ovarian
M14 melanoma = test system: M14 melanoma
RXF 393 renal = test system: RXF 393 renal
HCC-2998 colon = test system: HCC-2998 colon
HT29 colon = test system: HT29 colon
MOLT-4 leukemia = test system: MOLT-4 leukemia
MDA-MB-231 breast = test system: MDA-MB-231 breast
SK-MEL-5 melanoma = test system: SK-MEL-5 melanoma
SF-268 CNS = test system: SF-268 CNS
HCT-116 colon = test system: HCT-116 colon
SR leukemia = test system: SR leukemia
EKVX NSCLC = test system: EKVX NSCLC
HCT-15 colon = test system: HCT-15 colon
A549 NSCLC = test system: A549 NSCLC
SF-295 CNS = test system: SF-295 CNS
MCF7 breast = test system: MCF7 breast
SNB-19 CNS = test system: SNB-19 CNS
786-0 renal = test system: 786-0 renal
DU-145 prostate = test system: DU-145 prostate
COLO 205 colon = test system: COLO 205 colon
MDA-MB-468 breast = test system: MDA-MB-468 breast
HS 578T breast = test system: HS 578T breast
TK-10 renal = test system: TK-10 renal
BT-549 breast = test system: BT-549 breast
SN12C renal = test system: SN12C renal
MDA-MB-435 melanoma = test system: MDA-MB-435 melanoma
LOX IMVI melanoma = test system: LOX IMVI melanoma
OVCAR-4 ovarian = test system: OVCAR-4 ovarian
HOP-62 NSCLC = test system: HOP-62 NSCLC
SF-539 CNS = test system: SF-539 CNS
A498 renal = test system: A498 renal
NCI/ADR-RES ovarian = test system: NCI/ADR-RES ovarian
NCI-H322M lung = test system: NCI-H322M lung
OVCAR-3 ovarian = test system: OVCAR-3 ovarian
NCI-H226 lung = test system: NCI-H226 lung
SK-MEL-28 melanoma = test system: SK-MEL-28 melanoma
U251 glioblastoma = test system: U251 glioblastoma
HL-60(TB) leukemia = test system: HL-60(TB) leukemia
UACC-257 melanoma = test system: UACC-257 melanoma
CCRF-CEM leukemia = test system: CCRF-CEM leukemia
SK-OV-3 ovarian = test system: SK-OV-3 ovarian
MALME-3M melanoma = test system: MALME-3M melanoma
K-562 leukemia = test system: K-562 leukemia
SW-620 colon = test system: SW-620 colon
SK-MEL-2 melanoma = test system: SK-MEL-2 melanoma
RPMI-8226 leukemia = test system: RPMI-8226 leukemia
PC-3 prostate = test system: PC-3 prostate
ACHN renal = test system: ACHN renal
HOP-92 NSCLC = test system: HOP-92 NSCLC
NCI-H522 lung = test system: NCI-H522 lung
SNB-75 CNS = test system: SNB-75 CNS
KM12 colon = test system: KM12 colon
OVCAR-5 ovarian = test system: OVCAR-5 ovarian

N#Cc1ccnc(N2C(=O)CC[C@H]2C(=O)N(c2cncc(F)c2)[C@H](C(=O)NC2CC(F)(F)C2)c2ccccc2Cl)c1
> 100 µM: TGI (IGROV1 ovarian) | TGI (UO-31 renal) | TGI (NCI-H23 lung) | TGI (UACC-62 melanoma) | TGI (NCI-H460 NSCLC) | TGI (T-47D breast) | TGI (OVCAR-8 ovarian) | TGI (M14 melanoma) | TGI (RXF 393 renal) | TGI (HCC-2998 colon) | TGI (HT29 colon) | TGI (MOLT-4 leukemia) | TGI (MDA-MB-231 breast) | TGI (SK-MEL-5 melanoma) | TGI (SF-268 CNS) | TGI (HCT-116 colon) | TGI (EKVX NSCLC) | TGI (HCT-15 colon) | TGI (A549 NSCLC) | TGI (SF-295 CNS) | TGI (MCF7 breast) | TGI (SNB-19 CNS) | TGI (786-0 renal) | TGI (DU-145 prostate) | TGI (COLO 205 colon) | TGI (MDA-MB-468 breast) | TGI (HS 578T breast) | TGI (TK-10 renal) | TGI (BT-549 breast) | TGI (SN12C renal) | TGI (MDA-MB-435 melanoma) | TGI (LOX IMVI melanoma) | TGI (OVCAR-4 ovarian) | TGI (HOP-62 NSCLC) | TGI (SF-539 CNS) | TGI (A498 renal) | TGI (NCI/ADR-RES ovarian) | TGI (NCI-H322M lung) | TGI (OVCAR-3 ovarian) | TGI (NCI-H226 lung) | TGI (SK-MEL-28 melanoma) | TGI (U251 glioblastoma) | TGI (HL-60(TB) leukemia) | TGI (UACC-257 melanoma) | TGI (CCRF-CEM leukemia) | TGI (SK-OV-3 ovarian) | TGI (MALME-3M melanoma) | TGI (K-562 leukemia) | TGI (SW-620 colon) | TGI (SK-MEL-2 melanoma) | TGI (RPMI-8226 leukemia) | TGI (PC-3 prostate) | TGI (ACHN renal) | TGI (HOP-92 NSCLC) | TGI (NCI-H522 lung) | TGI (SNB-75 CNS) | TGI (KM12 colon) | TGI (OVCAR-5 ovarian)
> 82.9 µM: TGI (CAKI-1 renal)
> 95.8 µM: TGI (SR leukemia)
inactive: GI50 (IGROV1 ovarian) > 100 µM | GI50 (UO-31 renal) > 100 µM | GI50 (NCI-H23 lung) > 89.5 µM | GI50 (CAKI-1 renal) > 55.4 µM | GI50 (UACC-62 melanoma) > 100 µM | GI50 (NCI-H460 NSCLC) 89.7 µM | GI50 (T-47D breast) > 100 µM | GI50 (OVCAR-8 ovarian) > 100 µM | GI50 (M14 melanoma) > 100 µM | GI50 (RXF 393 renal) > 77.2 µM | GI50 (HCC-2998 colon) > 100 µM | GI50 (HT29 colon) > 95.3 µM | GI50 (MOLT-4 leukemia) 30.3 µM | GI50 (MDA-MB-231 breast) > 100 µM | GI50 (SK-MEL-5 melanoma) > 100 µM | GI50 (SF-268 CNS) > 100 µM | GI50 (HCT-116 colon) 28.6 µM | GI50 (SR leukemia) 31.4 µM | GI50 (EKVX NSCLC) > 100 µM | GI50 (HCT-15 colon) > 100 µM | GI50 (A549 NSCLC) > 90.8 µM | GI50 (SF-295 CNS) > 100 µM | GI50 (MCF7 breast) > 100 µM | GI50 (SNB-19 CNS) > 100 µM | GI50 ([…]-0 renal) > 100 µM | GI50 (DU-145 prostate) > 100 µM | GI50 (COLO 205 colon) > 100 µM | GI50 (MDA-MB-468 breast) > 100 µM | GI50 (HS 578T breast) > 87.8 µM | GI50 (TK-10 renal) > 100 µM | GI50 (BT-549 breast) > 100 µM | GI50 (SN12C renal) > 100 µM | GI50 (MDA-MB-435 melanoma) > 100 µM | GI50 (LOX IMVI melanoma) > 100 µM | GI50 (OVCAR-4 ovarian) > 86.7 µM | GI50 (HOP-62 NSCLC) > 100 µM | GI50 (SF-539 CNS) > 100 µM | GI50 (A498 renal) > 100 µM | GI50 (NCI/ADR-RES ovarian) > 100 µM | GI50 (NCI-H322M lung) > 100 µM | GI50 (OVCAR-3 ovarian) > 96.1 µM | GI50 (NCI-H226 lung) > 84.9 µM | GI50 (SK-MEL-28 melanoma) > 100 µM | GI50 (U251 glioblastoma) > 100 µM | GI50 (HL-60(TB) leukemia) > 100 µM | GI50 (UACC-257 melanoma) > 100 µM | GI50 (CCRF-CEM leukemia) > 72.8 µM | GI50 (SK-OV-3 ovarian) > 100 µM | GI50 (MALME-3M melanoma) > 100 µM | GI50 (K-562 leukemia) 99.2 µM | GI50 (SW-620 colon) > 100 µM | GI50 (SK-MEL-2 melanoma) > 100 µM | GI50 (RPMI-8226 leukemia) > 100 µM | GI50 (PC-3 prostate) > 100 µM | GI50 (ACHN renal) > 100 µM | GI50 (HOP-92 NSCLC) 34.3 µM | GI50 (NCI-H522 lung) 97.9 µM | GI50 (SNB-75 CNS) > 100 µM | GI50 (KM12 colon) > 100 µM | GI50 (OVCAR-5 ovarian) > 100 µM
